# Legend:
# [1] = molecular target: T1, Serine/threonine-protein kinase VRK1 (Homo sapiens) (UniProt Q99986)
# T1 sequence (whole entry): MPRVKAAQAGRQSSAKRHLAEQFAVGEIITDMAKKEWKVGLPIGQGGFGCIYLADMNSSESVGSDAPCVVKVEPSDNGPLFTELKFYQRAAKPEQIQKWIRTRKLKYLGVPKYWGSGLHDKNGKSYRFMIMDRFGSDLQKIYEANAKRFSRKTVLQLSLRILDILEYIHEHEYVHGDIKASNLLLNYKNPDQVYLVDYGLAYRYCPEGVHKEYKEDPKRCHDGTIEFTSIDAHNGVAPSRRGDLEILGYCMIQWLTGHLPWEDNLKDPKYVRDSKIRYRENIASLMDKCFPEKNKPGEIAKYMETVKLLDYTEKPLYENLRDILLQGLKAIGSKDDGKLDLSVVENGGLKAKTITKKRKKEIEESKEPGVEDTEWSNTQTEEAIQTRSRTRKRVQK
# [2] = molecular target: Serine/threonine-protein kinase PAK 5 (Homo sapiens) (UniProt Q9P286)
# [3] = molecular target: Mitogen-activated protein kinase 6 (Homo sapiens) (UniProt Q16659)
# Mitogen-activated protein kinase 6 (Homo sapiens), sequence (Q16659 whole entry): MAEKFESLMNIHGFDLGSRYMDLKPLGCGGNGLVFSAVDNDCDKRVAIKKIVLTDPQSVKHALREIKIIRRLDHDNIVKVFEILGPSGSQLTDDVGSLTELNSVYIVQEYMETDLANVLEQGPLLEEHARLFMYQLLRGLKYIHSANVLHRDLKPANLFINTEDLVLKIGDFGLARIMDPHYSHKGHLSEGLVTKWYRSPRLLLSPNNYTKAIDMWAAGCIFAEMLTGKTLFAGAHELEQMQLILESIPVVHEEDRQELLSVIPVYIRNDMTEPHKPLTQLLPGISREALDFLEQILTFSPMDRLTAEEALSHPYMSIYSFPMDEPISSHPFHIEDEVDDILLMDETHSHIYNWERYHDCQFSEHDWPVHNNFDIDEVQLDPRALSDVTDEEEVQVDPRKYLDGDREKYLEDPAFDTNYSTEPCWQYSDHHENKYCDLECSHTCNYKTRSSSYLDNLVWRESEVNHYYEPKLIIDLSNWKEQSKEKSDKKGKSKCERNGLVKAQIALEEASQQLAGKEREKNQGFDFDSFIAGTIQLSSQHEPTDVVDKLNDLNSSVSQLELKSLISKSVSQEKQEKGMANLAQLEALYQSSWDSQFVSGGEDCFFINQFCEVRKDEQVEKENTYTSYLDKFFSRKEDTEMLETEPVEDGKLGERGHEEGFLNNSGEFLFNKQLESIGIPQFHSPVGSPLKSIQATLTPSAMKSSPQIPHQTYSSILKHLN
# [4] = molecular target: Calcium/calmodulin-dependent protein kinase type 1D (Homo sapiens) (UniProt Q8IU85)
# [5] = molecular target: Calcium/calmodulin-dependent protein kinase type II subunit beta (Homo sapiens) (UniProt Q13554)
# Calcium/calmodulin-dependent protein kinase type II subunit beta (Homo sapiens), sequence (Q13554 whole entry): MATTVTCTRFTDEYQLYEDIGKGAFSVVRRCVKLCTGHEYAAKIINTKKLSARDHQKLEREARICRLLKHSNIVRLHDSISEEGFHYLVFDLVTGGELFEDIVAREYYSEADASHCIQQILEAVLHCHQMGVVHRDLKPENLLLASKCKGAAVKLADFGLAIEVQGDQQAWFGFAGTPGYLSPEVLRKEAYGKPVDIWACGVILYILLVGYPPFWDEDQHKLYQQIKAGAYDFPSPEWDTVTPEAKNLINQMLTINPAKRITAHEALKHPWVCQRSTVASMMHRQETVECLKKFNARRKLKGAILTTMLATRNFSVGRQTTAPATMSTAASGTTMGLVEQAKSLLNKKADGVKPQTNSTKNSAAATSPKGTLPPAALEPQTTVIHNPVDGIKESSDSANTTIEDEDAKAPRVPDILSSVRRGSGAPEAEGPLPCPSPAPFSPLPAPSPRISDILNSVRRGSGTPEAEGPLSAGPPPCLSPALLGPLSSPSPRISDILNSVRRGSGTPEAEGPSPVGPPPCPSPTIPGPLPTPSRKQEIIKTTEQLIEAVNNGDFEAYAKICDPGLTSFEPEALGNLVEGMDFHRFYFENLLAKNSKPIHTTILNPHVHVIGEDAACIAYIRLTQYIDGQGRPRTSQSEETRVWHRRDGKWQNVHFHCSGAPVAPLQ
# [6] = molecular target: Serine/threonine-protein kinase OSR1 (Homo sapiens) (UniProt O95747)
# Serine/threonine-protein kinase OSR1 (Homo sapiens), sequence (O95747 2-527 limits assumed): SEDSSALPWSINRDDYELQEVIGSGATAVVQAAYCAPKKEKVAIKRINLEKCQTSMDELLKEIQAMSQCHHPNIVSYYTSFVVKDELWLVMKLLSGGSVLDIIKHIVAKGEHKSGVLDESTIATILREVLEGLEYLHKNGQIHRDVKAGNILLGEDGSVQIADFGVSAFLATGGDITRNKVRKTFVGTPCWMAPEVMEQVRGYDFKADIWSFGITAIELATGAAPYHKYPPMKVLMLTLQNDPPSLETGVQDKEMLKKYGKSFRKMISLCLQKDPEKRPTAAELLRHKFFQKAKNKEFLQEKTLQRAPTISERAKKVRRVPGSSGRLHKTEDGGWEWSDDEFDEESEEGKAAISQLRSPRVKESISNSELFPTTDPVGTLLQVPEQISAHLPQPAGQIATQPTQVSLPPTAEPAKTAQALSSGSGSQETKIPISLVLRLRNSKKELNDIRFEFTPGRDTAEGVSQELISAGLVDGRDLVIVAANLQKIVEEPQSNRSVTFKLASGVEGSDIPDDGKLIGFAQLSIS
# [7] = molecular target: Serine/threonine-protein kinase PAK 4 (Homo sapiens) (UniProt O96013)
# Serine/threonine-protein kinase PAK 4 (Homo sapiens), sequence (O96013 whole entry, looked up): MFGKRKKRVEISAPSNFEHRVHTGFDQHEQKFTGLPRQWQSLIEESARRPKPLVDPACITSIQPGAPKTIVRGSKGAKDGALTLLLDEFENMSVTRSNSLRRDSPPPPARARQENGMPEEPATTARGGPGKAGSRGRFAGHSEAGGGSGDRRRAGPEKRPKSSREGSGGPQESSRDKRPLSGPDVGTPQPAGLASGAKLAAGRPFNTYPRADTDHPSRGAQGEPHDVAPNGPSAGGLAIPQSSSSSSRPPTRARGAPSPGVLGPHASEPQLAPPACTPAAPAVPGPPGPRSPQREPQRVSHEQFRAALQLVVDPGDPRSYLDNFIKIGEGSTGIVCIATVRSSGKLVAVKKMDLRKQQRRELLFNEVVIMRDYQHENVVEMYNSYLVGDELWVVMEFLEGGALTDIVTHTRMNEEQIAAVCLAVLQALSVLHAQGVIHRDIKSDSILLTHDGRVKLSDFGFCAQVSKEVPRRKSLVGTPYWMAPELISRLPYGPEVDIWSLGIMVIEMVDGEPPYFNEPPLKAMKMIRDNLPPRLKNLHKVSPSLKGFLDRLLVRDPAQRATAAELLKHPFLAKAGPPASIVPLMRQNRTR
# [8] = molecular target: Serine/threonine-protein kinase VRK2 (Homo sapiens) (UniProt Q86Y07)
# Serine/threonine-protein kinase VRK2 (Homo sapiens), sequence (Q86Y07 whole entry): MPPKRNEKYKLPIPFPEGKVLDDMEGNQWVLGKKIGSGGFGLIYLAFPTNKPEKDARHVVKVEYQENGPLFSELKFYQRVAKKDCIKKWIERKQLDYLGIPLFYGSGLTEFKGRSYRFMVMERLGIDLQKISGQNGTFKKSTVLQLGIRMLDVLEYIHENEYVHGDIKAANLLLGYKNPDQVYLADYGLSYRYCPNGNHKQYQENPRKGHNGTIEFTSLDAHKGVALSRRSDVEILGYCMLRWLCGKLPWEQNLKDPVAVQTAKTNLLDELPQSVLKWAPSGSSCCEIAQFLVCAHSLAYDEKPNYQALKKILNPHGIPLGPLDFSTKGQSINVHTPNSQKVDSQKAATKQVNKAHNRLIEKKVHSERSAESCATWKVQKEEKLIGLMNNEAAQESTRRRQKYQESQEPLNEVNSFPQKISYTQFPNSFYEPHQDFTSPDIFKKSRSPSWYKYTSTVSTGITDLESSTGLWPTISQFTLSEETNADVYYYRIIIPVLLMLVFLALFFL
# [9] = molecular target: T2, Mitogen-activated protein kinase kinase kinase 5 (Homo sapiens) (UniProt Q99683)
# T2 sequence (whole entry): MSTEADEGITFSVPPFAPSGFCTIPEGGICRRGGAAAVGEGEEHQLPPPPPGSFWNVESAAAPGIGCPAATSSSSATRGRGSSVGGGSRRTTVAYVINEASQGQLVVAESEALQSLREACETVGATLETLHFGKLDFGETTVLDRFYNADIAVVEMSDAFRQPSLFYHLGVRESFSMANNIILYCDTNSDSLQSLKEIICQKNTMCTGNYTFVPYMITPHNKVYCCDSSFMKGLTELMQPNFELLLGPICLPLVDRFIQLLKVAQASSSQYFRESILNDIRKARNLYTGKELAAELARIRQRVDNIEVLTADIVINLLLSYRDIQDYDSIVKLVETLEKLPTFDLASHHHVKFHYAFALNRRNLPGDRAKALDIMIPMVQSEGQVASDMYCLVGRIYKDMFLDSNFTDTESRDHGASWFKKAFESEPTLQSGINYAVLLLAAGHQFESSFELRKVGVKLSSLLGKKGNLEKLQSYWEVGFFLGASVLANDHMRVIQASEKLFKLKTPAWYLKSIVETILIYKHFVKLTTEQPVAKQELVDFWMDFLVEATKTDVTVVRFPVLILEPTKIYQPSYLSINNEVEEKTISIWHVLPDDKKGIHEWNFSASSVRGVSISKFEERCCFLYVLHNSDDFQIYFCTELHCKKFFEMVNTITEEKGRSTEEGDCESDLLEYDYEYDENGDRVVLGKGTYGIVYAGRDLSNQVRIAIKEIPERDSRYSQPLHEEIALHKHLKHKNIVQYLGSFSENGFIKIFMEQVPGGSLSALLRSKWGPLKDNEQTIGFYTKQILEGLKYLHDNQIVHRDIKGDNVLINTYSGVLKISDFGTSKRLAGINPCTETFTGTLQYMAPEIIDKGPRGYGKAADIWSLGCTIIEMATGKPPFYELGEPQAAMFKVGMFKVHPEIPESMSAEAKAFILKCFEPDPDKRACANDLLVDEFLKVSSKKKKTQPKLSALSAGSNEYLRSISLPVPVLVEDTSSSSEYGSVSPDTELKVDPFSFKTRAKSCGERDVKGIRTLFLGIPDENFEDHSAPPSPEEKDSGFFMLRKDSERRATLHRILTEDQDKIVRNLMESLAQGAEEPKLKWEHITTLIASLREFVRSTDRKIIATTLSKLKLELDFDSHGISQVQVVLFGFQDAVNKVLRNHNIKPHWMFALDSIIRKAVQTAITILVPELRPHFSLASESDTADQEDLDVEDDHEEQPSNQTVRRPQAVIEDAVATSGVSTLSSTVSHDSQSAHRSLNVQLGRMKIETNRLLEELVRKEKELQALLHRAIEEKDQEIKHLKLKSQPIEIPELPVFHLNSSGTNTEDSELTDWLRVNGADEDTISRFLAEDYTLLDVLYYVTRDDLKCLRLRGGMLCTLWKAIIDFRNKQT
# [10] = molecular target: Serine/threonine-protein kinase pim-1 (Homo sapiens) (UniProt P11309)
# [11] = molecular target: Serine/threonine-protein kinase 10 (Homo sapiens) (UniProt O94804)
# Serine/threonine-protein kinase 10 (Homo sapiens), sequence (O94804 whole entry, looked up, canonical isoform): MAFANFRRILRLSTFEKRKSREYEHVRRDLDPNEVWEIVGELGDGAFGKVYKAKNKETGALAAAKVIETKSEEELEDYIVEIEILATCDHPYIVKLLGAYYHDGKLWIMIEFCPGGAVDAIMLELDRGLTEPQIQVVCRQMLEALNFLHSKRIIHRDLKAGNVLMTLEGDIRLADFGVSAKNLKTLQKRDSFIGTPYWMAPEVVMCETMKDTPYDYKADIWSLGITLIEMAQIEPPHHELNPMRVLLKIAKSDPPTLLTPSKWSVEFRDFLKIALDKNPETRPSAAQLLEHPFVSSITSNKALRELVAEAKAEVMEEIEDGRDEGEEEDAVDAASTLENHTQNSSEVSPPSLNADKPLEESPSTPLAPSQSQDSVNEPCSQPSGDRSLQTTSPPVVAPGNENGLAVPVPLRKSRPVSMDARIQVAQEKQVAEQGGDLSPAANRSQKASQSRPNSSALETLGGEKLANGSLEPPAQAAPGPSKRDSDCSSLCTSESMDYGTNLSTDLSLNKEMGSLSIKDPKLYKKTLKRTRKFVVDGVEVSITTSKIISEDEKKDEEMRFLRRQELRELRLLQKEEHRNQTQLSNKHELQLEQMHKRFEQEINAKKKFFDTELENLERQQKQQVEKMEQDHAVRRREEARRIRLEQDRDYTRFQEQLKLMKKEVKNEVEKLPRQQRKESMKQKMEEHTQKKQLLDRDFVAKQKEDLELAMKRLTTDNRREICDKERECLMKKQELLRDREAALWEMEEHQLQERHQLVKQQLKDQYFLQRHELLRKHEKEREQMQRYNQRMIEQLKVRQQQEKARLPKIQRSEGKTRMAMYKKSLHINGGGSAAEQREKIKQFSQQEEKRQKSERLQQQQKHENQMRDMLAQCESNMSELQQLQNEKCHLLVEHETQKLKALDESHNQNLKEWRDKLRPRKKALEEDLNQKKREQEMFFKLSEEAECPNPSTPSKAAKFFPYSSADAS
# [12] = molecular target: Casein kinase I isoform gamma-2 (Homo sapiens) (UniProt P78368)
# Casein kinase I isoform gamma-2 (Homo sapiens), sequence (P78368 whole entry, looked up, canonical isoform): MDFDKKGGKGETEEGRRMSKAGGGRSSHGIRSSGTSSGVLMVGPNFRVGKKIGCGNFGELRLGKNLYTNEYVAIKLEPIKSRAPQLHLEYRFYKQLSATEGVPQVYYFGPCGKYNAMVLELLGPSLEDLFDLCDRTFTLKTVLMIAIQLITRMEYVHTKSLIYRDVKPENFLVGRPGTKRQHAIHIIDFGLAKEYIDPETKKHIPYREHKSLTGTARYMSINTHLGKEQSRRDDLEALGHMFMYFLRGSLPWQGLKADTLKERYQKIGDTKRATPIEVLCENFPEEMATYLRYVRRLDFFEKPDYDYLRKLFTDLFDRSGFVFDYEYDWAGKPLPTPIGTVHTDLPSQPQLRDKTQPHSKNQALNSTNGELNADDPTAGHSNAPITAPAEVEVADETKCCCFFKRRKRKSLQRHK
# [13] = molecular target: Dual specificity protein kinase CLK1 (Homo sapiens) (UniProt P49759)
# [14] = molecular target: Tyrosine-protein kinase JAK1 (Homo sapiens) (UniProt P23458)
# [15] = molecular target: Cyclin-dependent kinase 16 (Homo sapiens) (UniProt Q00536)
# [16] = molecular target: Cyclin-dependent kinase 6 (Homo sapiens) (UniProt Q00534)
# Cyclin-dependent kinase 6 (Homo sapiens), sequence (Q00534 whole entry): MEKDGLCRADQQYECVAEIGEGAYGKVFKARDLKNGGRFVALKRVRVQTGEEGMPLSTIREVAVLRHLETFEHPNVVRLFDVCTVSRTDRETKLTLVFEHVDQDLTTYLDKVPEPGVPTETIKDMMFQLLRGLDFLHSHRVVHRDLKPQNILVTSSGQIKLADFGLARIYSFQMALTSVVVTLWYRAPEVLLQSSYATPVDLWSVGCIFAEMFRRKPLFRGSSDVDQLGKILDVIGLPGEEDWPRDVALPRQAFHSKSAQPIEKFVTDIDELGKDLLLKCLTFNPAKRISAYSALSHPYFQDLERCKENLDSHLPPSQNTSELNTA
# [17] = molecular target: Ribosomal protein S6 kinase alpha-3 (Homo sapiens) (UniProt P51812)
# [18] = molecular target: Mitogen-activated protein kinase 3 (Homo sapiens, UniProt P27361)
SMILES,ΔTm [1],ΔTm [2],ΔTm [3],ΔTm [4],ΔTm [5],ΔTm [6],ΔTm [7],ΔTm [8],ΔTm [9],ΔTm [10],ΔTm [11],ΔTm [12],ΔTm [13],ΔTm [14],ΔTm [15],ΔTm [16],ΔTm [17],ΔTm [18]
CC(C)n1cnc2/c(=N/c3cccc(Cl)c3)nc(NCCO)[nH]c21,0.5 °C,1.6 °C,0.2 °C,0.7 °C,0.4 °C,1.3 °C,2.9 °C,2.5 °C,0.4 °C,-0.3 °C,2 °C,4.5 °C,5.1 °C,3.7 °C,0.1 °C,0 °C,2.1 °C,0.2 °C
Nc1cccc(-c2cc3c(Oc4cccc(O)c4)ncnc3[nH]2)c1,0.8 °C,1.7 °C,1.2 °C,0.3 °C,0.5 °C,1.7 °C,2.8 °C,0.5 °C,0.5 °C,0.7 °C,5.9 °C,1.2 °C,1.8 °C,4.3 °C,0.1 °C,0.9 °C,5.7 °C,0 °C
O=C1c2ccccc2-[n+]2ccc3c([nH]c4ccccc43)c21 [FASCAPLYSIN CHLORIDE],-1.2 °C,0.3 °C,-1.9 °C,-4.3 °C,-2 °C,-1.5 °C,-0.6 °C,-0.8 °C,-2.6 °C,-0.8 °C,-1.8 °C,-0.3 °C,-1.9 °C,-1.5 °C,-0.6 °C,0.2 °C,0.7 °C,0.3 °C
CSc1nc(-c2ccc(F)cc2)c(-c2ccnc(NC(C)c3ccccc3)c2)[nH]1 (racemic),0.9 °C,0 °C,0.4 °C,0.5 °C,0 °C,0.3 °C,0.2 °C,0.2 °C,0.4 °C,-0.4 °C,1.9 °C,3.4 °C,0 °C,0.9 °C,0.4 °C,0 °C,0.2 °C,0 °C
CCOc1cc2ncnc(Nc3cccc(Br)c3)c2cc1OCC,0 °C,0.4 °C,0.2 °C,0.7 °C,0.8 °C,1 °C,0.4 °C,0.6 °C,0.6 °C,0.2 °C,10.3 °C,0.6 °C,2 °C,2.7 °C,-1 °C,0.2 °C,0.2 °C,0.7 °C
N#CCCc1ccc2c(c1)-c1[nH]c3ccc([N+](=O)[O-])cc3c1CC(=O)N2 [ALSTERPAULLONE 2],1.1 °C,3.9 °C,1.7 °C,0.6 °C,0.2 °C,0.8 °C,4.3 °C,0.7 °C,1.8 °C,1.9 °C,4 °C,2 °C,3.1 °C,1.4 °C,8.7 °C,3.2 °C,1.4 °C,2.2 °C
COc1cc(C[C@H]2C(=O)OC[C@@H]2Cc2ccc(OC)c(OC)c2)ccc1O [ARCTIGENIN],0.7 °C,0.1 °C,0.2 °C,0.1 °C,0.6 °C,-0.1 °C,0.8 °C,0.5 °C,0.2 °C,-0.3 °C,0.7 °C,0.1 °C,-1 °C,-0.1 °C,-0.1 °C,0.4 °C,-0.1 °C,-0.4 °C

# Source: ChEMBL document CHEMBL1145498, “A systematic interaction map of validated kinase inhibitors with Ser/Thr kinases” (Proc Natl Acad Sci U S A, 2007)
